From ChEMBL document CHEMBL2311280, “Protein tyrosine phosphatase 1B inhibitory effect by dammarane-type triterpenes from hydrolyzate of total Gynostemma pentaphyllum saponins” (Bioorg Med Chem Lett, 2013)

Molecular target: T1, Tyrosine-protein phosphatase non-receptor type 1 (Homo sapiens, UniProt P18031)
T1 sequence (P18031 whole entry): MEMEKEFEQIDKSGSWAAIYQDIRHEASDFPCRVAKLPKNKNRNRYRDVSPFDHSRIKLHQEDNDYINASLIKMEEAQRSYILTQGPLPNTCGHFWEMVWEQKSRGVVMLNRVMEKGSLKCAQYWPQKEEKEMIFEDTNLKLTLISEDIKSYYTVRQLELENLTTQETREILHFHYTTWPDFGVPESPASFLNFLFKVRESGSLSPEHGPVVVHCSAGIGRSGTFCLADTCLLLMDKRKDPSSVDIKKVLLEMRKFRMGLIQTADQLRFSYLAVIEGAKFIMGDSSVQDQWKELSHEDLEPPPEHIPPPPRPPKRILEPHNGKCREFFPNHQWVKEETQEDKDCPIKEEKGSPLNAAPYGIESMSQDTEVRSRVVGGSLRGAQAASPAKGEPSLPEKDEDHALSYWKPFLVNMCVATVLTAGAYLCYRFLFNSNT
Experiment: Inhibition of PTP1B (unknown origin)

| IC50 | Structure (SMILES) |
| --- | --- |
| > 50 µM | C/C(=C/CCC(C)(C)O)[C@H]1CC[C@]2(C)[C@@H]1[C@H](O)C[C@@H]1[C@@]3(C)CC[C@H](O)C(C)(C)[C@@H]3CC[C@]12C |
| 27.8 µM | CC(C)=C[C@@H]1C[C@](O)([C@H]2CC[C@]3(C)[C@@H]2CC[C@@H]2[C@@]4(C)CC[C@H](O)C(C)(C)[C@@H]4CC[C@]23C)C(=O)O1 |
| 24.5 µM | CC(C)=C1CC([C@H]2CC[C@]3(C)[C@@H]2CC[C@@H]2C4=C(CC[C@]23C)C(C)(C)[C@@H]2CC[C@H]4O2)=CC1=O [GYPENSAPOGENIN B] |
| 13.1 µM | CC1(C)[C@@H](O)CC[C@]2(C)[C@H]3CC[C@@H]4[C@@H](C(=O)O)CC[C@@]4(C)[C@]3(C)CC[C@@H]12 |
| 49 µM | CC(C)(O)C[C@@H]1C=C([C@H]2CC[C@]3(C)[C@@H]2CC[C@@H]2[C@@]4(C)CC[C@H](O)C(C)(C)[C@@H]4CC[C@]23C)C(=O)O1 [GYPENSAPOGENIN F] |
| 15.2 µM | CC(C)=CCC[C@@](O)(CO)[C@H]1CC[C@]2(C)[C@@H]1CC[C@@H]1[C@@]3(C)CC[C@H](O)C(C)(C)[C@@H]3CC[C@]12C |
| > 50 µM | C=C(C)CCC[C@](C)(O)[C@H]1CC[C@]2(C)[C@@H]1[C@H](O)C[C@@H]1[C@@]3(C)CC[C@H](O)C(C)(C)[C@@H]3CC[C@]12C |
| 8.4 µM | CC(C)=C[C@H]1C[C@@](O)([C@H]2CC[C@]3(C)[C@@H]2CC[C@@H]2[C@@]4(C)CC[C@H](O)C(C)(C)[C@@H]4CC[C@]23C)C(=O)O1 |
| > 50 µM | C=C(C)[C@@H](O)CC[C@](C)(O)[C@H]1CC[C@]2(C)[C@@H]1[C@H](O)C[C@@H]1[C@@]3(C)CC[C@H](O)C(C)(C)[C@@H]3CC[C@]12C |
| 24.5 µM | CC(=O)O[C@H]1CC[C@]2(C)[C@H]3CC[C@@H]4[C@@H](C5=C[C@H](CC(C)(C)O)OC5=O)CC[C@@]4(C)[C@]3(C)CC[C@H]2C1(C)C [GYPENSAPOGENIN G] |
| 23 µM | CC(C)(O)C[C@H]1C=C([C@H]2CC[C@]3(C)[C@@H]2CC[C@@H]2[C@@]4(C)CC[C@H](O)C(C)(C)[C@@H]4CC[C@]23C)C(=O)O1 [GYPENSAPOGENIN E] |

| Structure (SMILES) | IC50 |
| --- | --- |
| CC(C)=C[C@H]1C=C([C@H]2CC[C@]3(C)[C@@H]2CC[C@@H]2[C@@]4(C)CC[C@H](O)C(C)(C)[C@@H]4CC[C@]23C)C(=O)O1 [GYPENSAPOGENIN D] | > 50 µM |
| CC(C)=CCC[C@](C)(O)[C@H]1CC[C@]2(C)[C@@H]1[C@H](O)C[C@@H]1[C@@]3(C)CC[C@H](O)C(C)(C)[C@@H]3CC[C@]12C | 23.6 µM |
| CC(C)=C1CC=C([C@H]2CC[C@]3(C)[C@@H]2CC[C@@H]2[C@@]4(C)CC[C@H](O)C(C)(C)[C@@H]4CC[C@]23C)C1=O [GYPENSAPOGENIN C] | > 50 µM |
